± gives the expanded uncertainty stated by the source.
Columns and labels:
[1] = refractive index (Na D-line) (dimensionless); mn = molality of the nth substance listed, in mol/kg; details: 101 kPa, Liquid, Standard Abbe refractometry
[2] = refractive index (Na D-line) (dimensionless); details: 101.33 kPa, Liquid, Standard Abbe refractometry
[3] = refractive index (Na D-line) (dimensionless); wn = mass fraction of the nth substance listed; details: 101 kPa, Liquid, Standard Abbe refractometry, w2 = 0

SMILES: O=S(=O)([O-])[O-].[Mg+2] [magnesium sulfate] + O
- refractive index ([1]; 288.15 K, m1 = 0.2096): 1.33858 ± 0.00041
- refractive index ([1]; 288.15 K, m1 = 0.3448): 1.34163 ± 0.00041
- refractive index ([1]; 288.15 K, m1 = 0.5911): 1.3471 ± 0.00041
- refractive index ([1]; 288.15 K, m1 = 0.7832): 1.35115 ± 0.00041
- refractive index ([1]; 288.15 K, m1 = 0.9997): 1.35558 ± 0.00041
- refractive index ([1]; 288.15 K, m1 = 1.19): 1.35934 ± 0.00041
- refractive index ([1]; 288.15 K, m1 = 1.379): 1.36292 ± 0.00042
- refractive index ([1]; 288.15 K, m1 = 1.621): 1.3674 ± 0.00042
- refractive index ([1]; 288.15 K, m1 = 1.867): 1.37176 ± 0.00042
- refractive index ([1]; 288.15 K, m1 = 2.12): 1.376 ± 0.00042
- refractive index ([1]; 288.15 K, m1 = 2.36): 1.37993 ± 0.00042
- refractive index ([1]; 288.15 K, m1 = 2.592): 1.38344 ± 0.00042
- refractive index ([1]; 298.15 K, m1 = 0.2096): 1.33762 ± 0.00041
- refractive index ([1]; 298.15 K, m1 = 0.3448): 1.34072 ± 0.00041
- refractive index ([1]; 298.15 K, m1 = 0.5911): 1.34594 ± 0.00041
- refractive index ([1]; 298.15 K, m1 = 0.7832): 1.35009 ± 0.00041
- refractive index ([1]; 298.15 K, m1 = 0.9997): 1.35438 ± 0.00041
- refractive index ([1]; 298.15 K, m1 = 1.19): 1.3581 ± 0.00042
- refractive index ([1]; 298.15 K, m1 = 1.379): 1.36174 ± 0.00042
- refractive index ([1]; 298.15 K, m1 = 1.621): 1.36613 ± 0.00042
- refractive index ([1]; 298.15 K, m1 = 1.867): 1.37039 ± 0.00042
- refractive index ([1]; 298.15 K, m1 = 2.12): 1.37469 ± 0.00042
- refractive index ([1]; 298.15 K, m1 = 2.36): 1.37853 ± 0.00042
- refractive index ([1]; 298.15 K, m1 = 2.592): 1.38211 ± 0.00042
- refractive index ([1]; 298.15 K, m1 = 2.859): 1.38613 ± 0.00042
- refractive index ([1]; 298.15 K, m1 = 3.087): 1.38927 ± 0.00042
- refractive index ([1]; 308.15 K, m1 = 0.2096): 1.33629 ± 0.00041
- refractive index ([1]; 308.15 K, m1 = 0.3448): 1.3393 ± 0.00041
- refractive index ([1]; 308.15 K, m1 = 0.5911): 1.34463 ± 0.00041
- refractive index ([1]; 308.15 K, m1 = 0.7832): 1.34872 ± 0.00041
- refractive index ([1]; 308.15 K, m1 = 0.9997): 1.35295 ± 0.00041
- refractive index ([1]; 308.15 K, m1 = 1.19): 1.35667 ± 0.00042
- refractive index ([1]; 308.15 K, m1 = 1.379): 1.36037 ± 0.00042
- refractive index ([1]; 308.15 K, m1 = 1.621): 1.36468 ± 0.00042
- refractive index ([1]; 308.15 K, m1 = 1.867): 1.36899 ± 0.00042
- refractive index ([1]; 308.15 K, m1 = 2.12): 1.3732 ± 0.00042
- refractive index ([1]; 308.15 K, m1 = 2.36): 1.37709 ± 0.00042
- refractive index ([1]; 308.15 K, m1 = 2.592): 1.38069 ± 0.00042
- refractive index ([1]; 308.15 K, m1 = 2.859): 1.38461 ± 0.00042
- refractive index ([1]; 308.15 K, m1 = 3.087): 1.3878 ± 0.00042
- refractive index ([1]; 308.15 K, m1 = 3.347): 1.39151 ± 0.00042
- refractive index ([1]; 308.15 K, m1 = 3.579): 1.3945 ± 0.00042
- refractive index ([1]; 318.15 K, m1 = 0.2096): 1.33491 ± 0.00041
- refractive index ([1]; 318.15 K, m1 = 0.3448): 1.33803 ± 0.00041
- refractive index ([1]; 318.15 K, m1 = 0.5911): 1.34335 ± 0.00041
- refractive index ([1]; 318.15 K, m1 = 0.7832): 1.34735 ± 0.00041
- refractive index ([1]; 318.15 K, m1 = 0.9997): 1.3516 ± 0.00041
- refractive index ([1]; 318.15 K, m1 = 1.19): 1.35532 ± 0.00041
- refractive index ([1]; 318.15 K, m1 = 1.379): 1.35894 ± 0.00042
- refractive index ([1]; 318.15 K, m1 = 1.621): 1.36342 ± 0.00042
- refractive index ([1]; 318.15 K, m1 = 1.867): 1.3677 ± 0.00042
- refractive index ([1]; 318.15 K, m1 = 2.12): 1.37185 ± 0.00042
- refractive index ([1]; 318.15 K, m1 = 2.36): 1.37586 ± 0.00042
- refractive index ([1]; 318.15 K, m1 = 2.592): 1.37944 ± 0.00042
- refractive index ([1]; 318.15 K, m1 = 2.859): 1.38352 ± 0.00042
- refractive index ([1]; 318.15 K, m1 = 3.087): 1.38662 ± 0.00042
- refractive index ([1]; 318.15 K, m1 = 3.347): 1.39026 ± 0.00042
- refractive index ([1]; 318.15 K, m1 = 3.579): 1.39328 ± 0.00042
- refractive index ([1]; 318.15 K, m1 = 3.807): 1.39614 ± 0.00042
- refractive index ([1]; 318.15 K, m1 = 3.998): 1.39817 ± 0.00042

SMILES: O [water]
- refractive index ([2]; 288.15 K): 1.33339 ± 0.00041
- refractive index ([2]; 298.15 K): 1.33248 ± 0.00041
- refractive index ([2]; 308.15 K): 1.33128 ± 0.00041
- refractive index ([2]; 318.15 K): 1.32979 ± 0.00041

SMILES: O [water] + CCO
- refractive index ([3]; 288.15 K): 1.33339 ± 0.00041
- refractive index ([3]; 298.15 K): 1.33248 ± 0.00041
- refractive index ([3]; 308.15 K): 1.33128 ± 0.00041
- refractive index ([3]; 318.15 K): 1.32979 ± 0.00041

SMILES: O [water] + O=S(=O)([O-])[O-].[Cu+2]
- refractive index ([1]; 288.15 K, m2 = 0): 1.33339 ± 0.00041
- refractive index ([1]; 298.15 K, m2 = 0): 1.33248 ± 0.00041
- refractive index ([1]; 308.15 K, m2 = 0): 1.33128 ± 0.00041
- refractive index ([1]; 318.15 K, m2 = 0): 1.32979 ± 0.00041

SMILES: O [water] + O=S(=O)([O-])[O-].[Li+].[Li+]
- refractive index ([1]; 288.15 K, m2 = 0): 1.33339 ± 0.00041
- refractive index ([1]; 298.15 K, m2 = 0): 1.33248 ± 0.00041
- refractive index ([1]; 308.15 K, m2 = 0): 1.33128 ± 0.00041
- refractive index ([1]; 318.15 K, m2 = 0): 1.32979 ± 0.00041

SMILES: O [water] + O=S(=O)([O-])[O-].[Mg+2]
- refractive index ([1]; 288.15 K, m2 = 0): 1.33339 ± 0.00041
- refractive index ([1]; 298.15 K, m2 = 0): 1.33248 ± 0.00041
- refractive index ([1]; 308.15 K, m2 = 0): 1.33128 ± 0.00041
- refractive index ([1]; 318.15 K, m2 = 0): 1.32979 ± 0.00041
